Values joined by “and” are separate entries in the source; they are usually repeats but may differ in a detail not shown here. Equal entries are not always repeated. Toxic doses and inconclusive results are not listed. The calls were made as follows: active = survival T/C of 150% or more; inactive = T/C below 125% in these data.
Tested on: BDF1 mice, B16 melanoma ip, median survival T/C
Assay: NCI In Vivo Anticancer Drug Screen. Data for tumor model B16 Melanoma (intraperitoneal) in B6D2F1 (BDF1) mice
Conditions: endpoint: median survival time, higher = longer survival
Method in brief: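 Tumor-bearing mice received test compound or vehicle. Survival or tumor size was then measured in both groups. The treated-group figure was divided by the control-group figure.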

Measured: T/C

CN(C)N=C1CCCC1
inactive: dose: 16.5 mg/kg/injection, schedule: Q04DX003 (ip), vehicle: saline 107 % of control | dose: 25.0 mg/kg/injection, schedule: Q04DX003 (ip), vehicle: saline 115 % of control | dose: 37.5 mg/kg/injection, schedule: Q04DX003 (ip), vehicle: saline 112 % of control

OCCN1CCN(CCCN2c3ccccc3Sc3ccc(C(F)(F)F)cc32)CC1
inactive: dose: 0.04 mg/kg/injection, schedule: Q01DX009 (ip), vehicle: saline 91 % of control | dose: 0.09 mg/kg/injection, schedule: Q01DX009 (ip), vehicle: saline 90 % of control and 106 % of control | dose: 0.19 mg/kg/injection, schedule: Q01DX009 (ip), vehicle: saline 102 % of control and 93 % of control | dose: 0.39 mg/kg/injection, schedule: Q01DX009 (ip), vehicle: saline 103 % of control and 109 % of control | dose: 0.78 mg/kg/injection, schedule: Q01DX009 (ip), vehicle: saline 99 % of control and 91 % of control | dose: 1.56 mg/kg/injection, schedule: Q01DX009 (ip), vehicle: saline 97 % of control

CCOC(=O)C1=C(C)O/C(=C/c2cccc(Cl)c2)C1=O
inactive: dose: 6.25 mg/kg/injection, schedule: Q01DX009 (ip), vehicle: saline with Tween-80 110 % of control | dose: 12.5 mg/kg/injection, schedule: Q01DX009 (ip), vehicle: saline with Tween-80 113 % of control | dose: 25.0 mg/kg/injection, schedule: Q01DX009 (ip), vehicle: saline with Tween-80 113 % of control | dose: 50.0 mg/kg/injection, schedule: Q01DX009 (ip), vehicle: saline with Tween-80 86 % of control and 107 % of control | dose: 100.0 mg/kg/injection, schedule: Q01DX009 (ip), vehicle: saline with Tween-80 97 % of control

S=C1NC(c2ccccc2)NC(c2ccccc2)S1 (stereo not drawn)
inactive: dose: 100.0 mg/kg/injection, schedule: Q01DX009 (ip), vehicle: other 100 % of control | dose: 200.0 mg/kg/injection, schedule: Q01DX009 (ip), vehicle: other 94 % of control | dose: 400.0 mg/kg/injection, schedule: Q01DX009 (ip), vehicle: other 86 % of control

C[CH2][Pb]([CH2]C)([CH2]C)[O]C(=O)c1ccccc1
inactive: dose: 0.75 mg/kg/injection, schedule: Q01DX009 (ip), vehicle: Klucel (hydroxypropylcellulose) (HPC) 93 % of control | dose: 1.5 mg/kg/injection, schedule: Q01DX009 (ip), vehicle: Klucel (hydroxypropylcellulose) (HPC) 90 % of control

O=C1N(c2nncs2)CCN1[N+](=O)[O-]
inactive: dose: 12.5 mg/kg/injection, schedule: Q01DX009 (ip), vehicle: Klucel (hydroxypropylcellulose) (HPC) 91 % of control | dose: 25.0 mg/kg/injection, schedule: Q01DX009 (ip), vehicle: Klucel (hydroxypropylcellulose) (HPC) 102 % of control | dose: 50.0 mg/kg/injection, schedule: Q01DX009 (ip), vehicle: Klucel (hydroxypropylcellulose) (HPC) 100 % of control | dose: 200.0 mg/kg/injection, schedule: Q01DX009 (ip), vehicle: Klucel (hydroxypropylcellulose) (HPC) 87 % of control
